According to US8097752B2, “Antiprotozoal ring-substituted phospholipids” (priority 2002, dated 2012):
Structures can show the parent of a compound that is named as a salt.

What was measured:
[1] = tested on: promastigote forms of Leishmania infantum; assay: In vitro antileishmanial activity in promastigote cultures (MTT), L. infantum; assay type: cell-based, Leishmania infantum MHOM/TN/80/IPT1/LEM 235; details: promastigotes, 72 h incubation, mean ± SEM, n = 3-4 (each run in duplicate), read-out: IC50 (μM) L. infantum MON 235
Method: (§1) Determination of in Vitro Antileishmanial Activity in Promastigote Cultures.
(§2) The effect of the phospholipids according to the present invention against the promastigote forms of Leishmania donovani and Leishmania infantum was evaluated using an MTT (3-(4,5-dimethylthiazol-2yl)-2,5-diphenyltetrazolium bromide)-based enzymatic method as a marker of cell viability and was compared with that of the ether phospholipid hexadecylphosphocholine (Miltefosine). Thus, promastigotes of Leishmania infantum MHOM/TN/80/IPT1/LEM 235 and Leishmania donovani MHOM/IN/80/DD8/LEM 703, were grown in RPMI 1640 supplemented with 10% FCS, L. glutamine and antibiotics, at 26° C. All new compounds were dissolved in DMSO to a final concentration of 9.625 mM and linear 3-fold dilutions were done in the culture medium. 25 μL of promastigote culture at 5×10^5 cells/mL were cultured in a 96-well flat-bottom plate (Costar 3696), and incubated with 25 μL of different drug concentrations at 26° C. After 72 h, 10 μL of 5 mg/mL MTT in PBS (SIGMA M2128) were added and incubation was continued for 3 h. The reaction was stopped by the addition of 50 μL of 50% isopropanol, 10% SDS under gentle shacking for 30 min. Absorbance was measured at 550 nm with reference at 620 nm in a TRITURUS microplate reader.

[2] = tested on: promastigote forms of Leishmania donovani; assay: In vitro antileishmanial activity in promastigote cultures (MTT), L. donovani; assay type: cell-based, Leishmania donovani MHOM/IN/80/DD8/LEM 703; details: promastigotes, 72 h incubation, mean ± SEM, n = 3-4 (each run in duplicate), read-out: IC50 (μM) L. donovani MON 703
Method: as §1, §2

Row | SMILES | IC50 [1] [µM] | IC50 [2] [µM]
1 | CCCCCCCCCCCC=C1CCC(OCCOP(=O)([O-])OCC[N+](C)(C)C)CC1 (stereo not drawn) [Example 1, 1-{2-{[(4-Dodecylidenecyclohexyloxy)ethyloxy]hydroxyphosphinyloxy}ethyl}-N,N,N-trimethylammonium inner salt] | 3.25 ± 0.65 | 7.08 ± 1.2
2 | CCCCCCCCCCCC=C1CCC(OCCOP(=O)([O-])OCC[N+]2(C)CCCCC2)CC1 (stereo not drawn) [Example 2, 1-{2-{[(4-Dodecylidenecyclohexyloxy)ethyloxy]hydroxyphosphinyloxy}ethyl}-1-methylpiperidinium inner salt] | 23.1 ± 3.6 | 22 ± 3.25
3 | CCCCCCCCCCCC=C1CCC(OCCOP(=O)([O-])OCC[N+]2(C)CCOCC2)CC1 (stereo not drawn) [Example 3, 1-{2-{[(4-Dodecylidenecyclohexyloxy)ethyloxy]hydroxyphosphinyloxy}ethyl}-1-methylmorpholinium inner salt] | 16.5 ± 1.8 | 50.7 ± 3.6
4 | CCCCCCCCCCCCCC=C1CCC(OCCOP(=O)([O-])OCC[N+](C)(C)C)CC1 (stereo not drawn) [Example 4, 1-{2-{[(4-Tetradecylidenecyclohexyloxy)ethyloxy]hydroxyphosphinyloxy}ethyl}-N,N,N-trimethylammonium inner salt] | 5.25 ± 0.45 | 3.91 ± 0.21
5 | CCCCCCCCCCCCCC=C1CCC(OCCOP(=O)([O-])OCC[N+]2(C)CCCCC2)CC1 (stereo not drawn) [Example 5, 1-{2-{[(4-Tetradecylidenecyclohexyloxy)ethyloxy]hydroxyphosphinyloxy}ethyl}-1-methylpiperidinium inner salt] | 11.4 ± 2.4 | 29.7 ± 3.6
6 | CCCCCCCCCCCCCC=C1CCC(OCCOP(=O)([O-])OCC[N+]2(C)CCOCC2)CC1 (stereo not drawn) [Example 6, 1-{2-{[(4-Tetradecylidenecyclohexyloxy)ethyloxy]hydroxyphosphinyloxy}ethyl}-1-methylmorpholinium inner salt] | 15.5 ± 1.8 | 38.6 ± 3.2
7 | CCCCCCCCCCCCCCCC=C1CCC(OCCOP(=O)([O-])OCC[N+](C)(C)C)CC1 (stereo not drawn) [Example 7, 1-{2-{[(4-Hexadecylidenecyclohexyloxy)ethyloxy]hydroxyphosphinyloxy}ethyl}-N,N,N-trimethylammonium inner salt] | 21.2 ± 2.6 | 45.1 ± 7.2
8 | CCCCCCCCCCCCCCCC=C1CCC(OCCOP(=O)([O-])OCC[N+]2(C)CCCCC2)CC1 (stereo not drawn) [Example 8, 1-{2-{[(4-Hexadecylidenecyclohexyloxy)ethyloxy]hydroxyphosphinyloxy}ethyl}-1-methylpiperidinium inner salt] | 6.5 ± 1.7 | 22 ± 1.99
9 | CCCCCCCCCCCCCCCC=C1CCC(OCCOP(=O)([O-])OCC[N+]2(C)CCOCC2)CC1 (stereo not drawn) [Example 9, 1-{2-{[(4-Hexadecylidenecyclohexyloxy)ethyloxy]hydroxyphosphinyloxy}ethyl}-1-methylmorpholinium inner salt] | 3.7 ± 0.71 | 16.2 ± 2.29
10 | C[N+](C)(C)CCOP(=O)([O-])OCCCCC=C1CCCCC1 [Example 10, 1-{2-[(5-Cyclohexylidenepentyloxy)hydroxyphosphinyloxy]ethyl}-N,N,N-trimethylammonium inner salt] | > 100 | > 100
11 | C[N+]1(CCOP(=O)([O-])OCCCCC=C2CCCCC2)CCCCC1 [Example 11, 1-{2-[(5-Cyclohexylidenepentyloxy)hydroxyphosphinyloxy]ethyl}-1-methylpiperidinium inner salt] | > 100 | > 100
12 | C[N+]1(CCOP(=O)([O-])OCCCCC=C2CCCCC2)CCOCC1 [Example 12, 1-{2-[(5-Cyclohexylidenepentyloxy)hydroxyphosphinyloxy]ethyl}-1-methylmorpholinium inner salt] | > 100 | > 100
13 | C[N+]1(CCOP(=O)([O-])OCCCCCCCCCCC=C2CCCCC2)CCCCC1 [Example 14, 1-{2-[(11-Cyclohexylideneundecyloxy)hydroxyphosphinyloxy]ethyl}-1-methylpiperidinium inner salt] | 47.6 ± 7.33 | 8.7 ± 1
14 | C[N+]1(CCOP(=O)([O-])OCCCCCCCCCCC=C2CCCCC2)CCOCC1 [Example 15, 1-{2-[(11-Cyclohexylideneundecyloxy)hydroxyphosphinyloxy]ethyl}-1-methylmorpholinium inner salt] | 22.8 ± 1.7 | 8.25 ± 0.25
15 | C[N+](C)(C)CCOP(=O)([O-])OCCCCC=C1C2CC3CC(C2)CC1C3 [Example 16, 1-{2-[(5-Adamantylidenepentyloxy)hydroxyphosphinyloxy]ethyl}-N,N,N-trimethylammonium inner salt] | > 100 | 4.99 ± 1.5
16 | C[N+]1(CCOP(=O)([O-])OCCCCC=C2C3CC4CC(C3)CC2C4)CCCCC1 [Example 17, 1-{2-[(5-Adamantylidenepentyloxy)hydroxyphosphinyloxy]ethyl}-1-methylpiperidinium inner salt] | > 100 | > 100
17 | C[N+]1(CCOP(=O)([O-])OCCCCC=C2C3CC4CC(C3)CC2C4)CCOCC1 [Example 18, 1-{2-[(5-Adamantylidenepentyloxy)hydroxyphosphinyloxy]ethyl}-1-methylmorpholinium inner salt] | > 100 | 46.9 ± 8.7
18 | C[N+]1(CCOP(=O)([O-])OCCCCCCCCCCC=C2C3CC4CC(C3)CC2C4)CCCCC1 [Example 20, 1-{2-[(11-Adamantylideneundecyloxy)hydroxyphosphinyloxy]ethyl}-1-methylpiperidinium inner salt] | 22.6 ± 3.4 | 5.41 ± 1.14
19 | C[N+]1(CCOP(=O)([O-])OCCCCCCCCCCC=C2C3CC4CC(C3)CC2C4)CCOCC1 [Example 21, 1-{2-[(11-Adamantylideneundecyloxy)hydroxyphosphinyloxy]ethyl}-1-methylmorpholinium inner salt] | 6.64 ± 1.2 | 5.09 ± 1.86
20 | CCCCCCCCCCCCC1CCC(OCCOP(=O)([O-])OCC[N+](C)(C)C)CC1 (stereo not drawn) [Example 26, 1-{2-{[(4-Dodecylcyclohexyloxy)ethyloxy]hydroxyphosphinyloxy}ethyl}-N,N,N-trimethylammonium inner salt] | 5.65 ± 1.93 | 9.49 ± 1.4
21 | CCCCCCCCCCCCCCC1CCC(OCCOP(=O)([O-])OCC[N+](C)(C)C)CC1 (stereo not drawn) [Example 27, 1-{2-{[(4-Tetradecylcyclohexyloxy)ethyloxy]hydroxyphosphinyloxy}ethyl}-N,N,N-trimethylammonium inner salt] | 23.3 ± 3.5 | 23.7 ± 4.4
22 | C[N+](C)(C)CCOP(=O)([O-])OCCCCCCCCCCCC1CCCCC1 [Example 28, 1-{2-[(11-Cyclohexylundecyloxy)hydroxyphosphinyloxy]ethyl}-N,N,N-trimethylammonium inner salt] | 8.4 ± 0.8 | 10.3 ± 1.3
23 | C[N+](C)(C)CCOP(=O)([O-])OCCCCCC12CC3CC(CC(C3)C1)C2 [Example 29, 1-{2-[(5-Adamantylpentyloxy)hydroxyphosphinyloxy]ethyl}-N,N,N-trimethylammonium inner salt] | > 100 | 4.02 ± 2.3
24 | C[N+](C)(C)CCOP(=O)([O-])OCCCCCCCCCCCC12CC3CC(CC(C3)C1)C2 [Example 30, 1-{2-[(11-Adamantylundecyloxy)hydroxyphosphinyloxy]ethyl}-N,N,N-trimethylammonium inner salt] | 5.97 ± 1.06 | 2.88 ± 0.72
